# Measurements taken from PMC4912218, “Targeted metabolomics of Gammarus pulex following controlled exposures to selected pharmaceuticals in water” (The Science of the Total Environment, 2016).
# Test system: Gammarus pulex
# Experiment: Targeted metabolite profiling (LC-HRMS) of G. pulex after exposure at NOAEL and LOAEL
# Assay type: in vivo
# Experimental: Approximately 100 specimens were introduced in a tank containing 1 L of AFW (control), 1 L of AFW spiked with C1 and 1 L of AFW with C2. At three different times (2, 6 and 24 h), 4 replicates of live G. pulex (a pool of 6–7 animals for each replicate) were collected, frozen on dry ice and then stored at − 80 °C before metabolite profiling was performed.
# Quantification of pharmaceutical concentrations in G. pulex at the 24 h exposure interval was performed. Separate exposures were set up in triplicate in beakers containing 200 mL of exposure solution (AFW spiked with the respective C1 pharmaceutical dose) and 20 organisms. At 24 h, animals were immediately rinsed with ultra-pure water and then frozen at − 20 °C for 24 h. […] Prior to extraction, frozen G. pulex samples were lyophilised at − 50 °C under vacuum for 48 h and milled in an agate mortar to a fine powder. For each analysis, 20 mg of a lyophilised composite sample were transferred to 2 mL polypropylene tubes (Eppendorf®, Hamburg, Germany), for solid-liquid extraction (SLE). […] Then, samples were shaken for 25 min on a vibration plate (IKA® KS 260 basic) and centrifuged at 14,000 rpm for 25 min at 0 °C. Finally, the supernatant was transferred to a chromatographic vial by using a […] syringe filter (Whatman, GE Healthcare Life Sciences, Buckinghamshire, UK). All samples were stored at − 80 °C until LC-HRMS analysis.
# Briefly, 50 mg of lyophilised G. pulex were extracted in 5 mL of acetonitrile and pre-concentrated on Oasis HLB SPE cartridges (6 mL, 200 mg sorbent). The extract was eluted, dried-down and reconstituted in starting LC mobile phase. […] Organic acids, nucleosides, nucleotides, sugars and AAs were measured using LC–HRMS. An Exactive™ mass spectrometer equipped with heated electrospray ionization (H-ESI) source was used (Thermo Fisher Scientific, Bremen, Germany). The system was equipped with a HTC PAL autosampler and a Surveyor MS Plus pump. A TSK Gel-Amide 80 column (2 × 250 mm, 5 μm) for analyte separation was purchased from Sigma Aldrich. Mobile phases were binary mixtures of acetonitrile (A) and 5 mM ammonium acetate (pH 5) in HPLC-grade water (B). […] The flow rate was set at 150 μL min^− 1 and the injection volume was 5 μL. […] Full scan acquisition over a mass range of 80–800 Da was performed at 70,000 full width at half maximum (FWHM) and spray voltage at 3.00 kV, capillary voltage at 30 V, skimmer voltage at 28 V and tube lens voltage at 130 V were used. A sheath gas flow rate of 45 arbitrary units (au), an auxiliary gas flow rate of 10 au and a capillary temperature at 300 °C were selected.
# Here, pharmaceutical residue quantification in exposed G. pulex was performed by a 3-point matrix-matched calibration curve. […] The algal amino acid mixture-^13C,^15N (see Table 1) was used as internal standard (IS) for extraction and analytical control. L-ornithine hydrochloride, inosine, thymidine, taurine, 1.7-dimethylxanthine and (−)-riboflavin were quantified using either ^13C,^15N-proline or ^13C,^15N-tyrosine as the internal standard. The remaining 15 compounds were quantified using external calibration and the target compound itself was used as external standard. […] The method detection limit (MDL) was calculated following the same procedure, using spiked lyophilised G. pulex samples at a concentration of 1 μg g^− 1. Intra-assay variation was assessed using five consecutive injections of 5 ng μL^− 1 standard solution, and inter-assay variation was determined by measuring the same standard solution on four different days. […] Recovery studies were performed in triplicate, using lyophilised G. pulex samples spiked at 1 μg g^− 1 with the metabolites mixture and the algal amino acid mixture-^13C, ^15N.
compound,measurement,setting,value
Oc1cc(Cl)ccc1Oc1ccc(Cl)cc1Cl [Triclosan],(-)-Riboflavin concentration in G. pulex,"6h, C2= 0.3 mg/L",2.6 ± 0.3 µg/g
same,ADP concentration in G. pulex,"6h, C2= 0.3 mg/L",28.2 ± 0.3 µg/g
same,Cytidine concentration in G. pulex,"6h, C2= 0.3 mg/L",19 ± 7 µg/g
same,Hypoxanthine concentration in G. pulex,"6h, C2= 0.3 mg/L",74 ± 18 µg/g
same,Inosine concentration in G. pulex,"6h, C2= 0.3 mg/L",23098 ± 627 µg/g
same,L-2-amino-n-butyric concentration in G. pulex,"6h, C2= 0.3 mg/L",19.8 ± 2 µg/g
same,L-(-)-Proline concentration in G. pulex,"6h, C2= 0.3 mg/L",246 ± 4 µg/g
same,L-Alanine concentration in G. pulex,"6h, C2= 0.3 mg/L",784 ± 31 µg/g
same,L-Citrulline concentration in G. pulex,"6h, C2= 0.3 mg/L",12.3 ± 1 µg/g
same,L-Isoleucine concentration in G. pulex,"6h, C2= 0.3 mg/L",1561 ± 147 µg/g
same,L-Leucine concentration in G. pulex,"6h, C2= 0.3 mg/L",353 ± 4 µg/g
same,L-Methionine concentration in G. pulex,"6h, C2= 0.3 mg/L",4.6 ± 0.8 µg/g
same,L-Phenylalanine concentration in G. pulex,"6h, C2= 0.3 mg/L",233 ± 5 µg/g
same,L-Serine concentration in G. pulex,"6h, C2= 0.3 mg/L",168 ± 2 µg/g
same,L-Threonine concentration in G. pulex,"6h, C2= 0.3 mg/L",486 ± 8 µg/g
same,L-Tryptophan concentration in G. pulex,"6h, C2= 0.3 mg/L",134 ± 10 µg/g
same,L-Tyrosine concentration in G. pulex,"6h, C2= 0.3 mg/L",234 ± 2 µg/g
same,L-Valine concentration in G. pulex,"6h, C2= 0.3 mg/L",299 ± 18 µg/g
same,L-aspartic acid concentration in G. pulex,"6h, C2= 0.3 mg/L",36.1 ± 6 µg/g
same,NADH concentration in G. pulex,"6h, C2= 0.3 mg/L",8.1 ± 0.8 µg/g
same,Taurine concentration in G. pulex,"6h, C2= 0.3 mg/L",8484 ± 60 µg/g
same,Thymidine concentration in G. pulex,"6h, C2= 0.3 mg/L",1163 ± 130 µg/g
same,Trehalose concentration in G. pulex,"6h, C2= 0.3 mg/L",251 ± 4 µg/g
same,Uridine concentration in G. pulex,"6h, C2= 0.3 mg/L",533 ± 28 µg/g
same,(-)-Riboflavin concentration in G. pulex,"24h, C1= 0.1 mg/L",2.4 ± 2 µg/g
same,ADP concentration in G. pulex,"24h, C1= 0.1 mg/L",18.7 ± 1 µg/g
same,Cytidine concentration in G. pulex,"24h, C1= 0.1 mg/L",19 ± 3 µg/g
same,Hypoxanthine concentration in G. pulex,"24h, C1= 0.1 mg/L",95 ± 27 µg/g
same,Inosine concentration in G. pulex,"24h, C1= 0.1 mg/L",18957 ± 5084 µg/g
same,L-2-amino-n-butyric concentration in G. pulex,"24h, C1= 0.1 mg/L",16.8 ± 5 µg/g
same,L-(-)-Proline concentration in G. pulex,"24h, C1= 0.1 mg/L",293 ± 13 µg/g
same,L-Alanine concentration in G. pulex,"24h, C1= 0.1 mg/L",810 ± 110 µg/g
same,L-Citrulline concentration in G. pulex,"24h, C1= 0.1 mg/L",8.3 ± 0.5 µg/g
same,L-Isoleucine concentration in G. pulex,"24h, C1= 0.1 mg/L",1743 ± 224 µg/g
same,L-Leucine concentration in G. pulex,"24h, C1= 0.1 mg/L",376 ± 13 µg/g
same,L-Methionine concentration in G. pulex,"24h, C1= 0.1 mg/L",7.0 ± 0.3 µg/g
same,L-Phenylalanine concentration in G. pulex,"24h, C1= 0.1 mg/L",260 ± 6 µg/g
same,L-Serine concentration in G. pulex,"24h, C1= 0.1 mg/L",120 ± 12 µg/g
same,L-Threonine concentration in G. pulex,"24h, C1= 0.1 mg/L",600 ± 20 µg/g
same,L-Tryptophan concentration in G. pulex,"24h, C1= 0.1 mg/L",72 ± 8 µg/g
same,L-Tyrosine concentration in G. pulex,"24h, C1= 0.1 mg/L",307 ± 4 µg/g
same,L-Valine concentration in G. pulex,"24h, C1= 0.1 mg/L",398 ± 17 µg/g
same,L-aspartic acid concentration in G. pulex,"24h, C1= 0.1 mg/L",82.5 ± 26 µg/g
same,NADH concentration in G. pulex,"24h, C1= 0.1 mg/L",7.7 ± 0.1 µg/g
same,Taurine concentration in G. pulex,"24h, C1= 0.1 mg/L",12433 ± 2122 µg/g
same,Thymidine concentration in G. pulex,"24h, C1= 0.1 mg/L",1718 ± 19 µg/g
same,Trehalose concentration in G. pulex,"24h, C1= 0.1 mg/L",251 ± 22 µg/g
same,Uridine concentration in G. pulex,"24h, C1= 0.1 mg/L",644 ± 77 µg/g
same,(-)-Riboflavin concentration in G. pulex,"24h, C2= 0.3 mg/L",2.6 ± 0.8 µg/g
same,ADP concentration in G. pulex,"24h, C2= 0.3 mg/L",29.3 ± 0.8 µg/g
same,Cytidine concentration in G. pulex,"24h, C2= 0.3 mg/L",16 ± 3 µg/g
same,Hypoxanthine concentration in G. pulex,"24h, C2= 0.3 mg/L",53 ± 10 µg/g
same,Inosine concentration in G. pulex,"24h, C2= 0.3 mg/L",36017 ± 80 µg/g
same,L-2-amino-n-butyric concentration in G. pulex,"24h, C2= 0.3 mg/L",21.5 ± 2 µg/g
same,L-(-)-Proline concentration in G. pulex,"24h, C2= 0.3 mg/L",207 ± 3 µg/g
same,L-Alanine concentration in G. pulex,"24h, C2= 0.3 mg/L",673 ± 17 µg/g
same,L-Citrulline concentration in G. pulex,"24h, C2= 0.3 mg/L",13.8 ± 2 µg/g
same,L-Isoleucine concentration in G. pulex,"24h, C2= 0.3 mg/L",1164 ± 39 µg/g
same,L-Leucine concentration in G. pulex,"24h, C2= 0.3 mg/L",299 ± 0.7 µg/g
same,L-Methionine concentration in G. pulex,"24h, C2= 0.3 mg/L",3.1 ± 0.9 µg/g
same,L-Phenylalanine concentration in G. pulex,"24h, C2= 0.3 mg/L",134 ± 0.5 µg/g
same,L-Serine concentration in G. pulex,"24h, C2= 0.3 mg/L",167 ± 15 µg/g
same,L-Threonine concentration in G. pulex,"24h, C2= 0.3 mg/L",440 ± 11 µg/g
same,L-Tryptophan concentration in G. pulex,"24h, C2= 0.3 mg/L",115 ± 8 µg/g
same,L-Tyrosine concentration in G. pulex,"24h, C2= 0.3 mg/L",224 ± 1 µg/g
same,L-Valine concentration in G. pulex,"24h, C2= 0.3 mg/L",250 ± 3 µg/g
same,L-aspartic acid concentration in G. pulex,"24h, C2= 0.3 mg/L",33.9 ± 11 µg/g
same,NADH concentration in G. pulex,"24h, C2= 0.3 mg/L",9.9 ± 0.3 µg/g
same,Taurine concentration in G. pulex,"24h, C2= 0.3 mg/L",8468 ± 142 µg/g
same,Thymidine concentration in G. pulex,"24h, C2= 0.3 mg/L",396 ± 12 µg/g
same,Trehalose concentration in G. pulex,"24h, C2= 0.3 mg/L",378 ± 17 µg/g
same,Uridine concentration in G. pulex,"24h, C2= 0.3 mg/L",574 ± 15 µg/g
